Experimental data published in ChEMBL document CHEMBL5518182, “Discovery and development of BI 1265162, an ENaC inhibitor for the treatment of cystic fibrosis” (Eur J Med Chem, 2024).
The source made the active and inactive calls. The rule behind the calls is not given here.

Assays:
[1] = Metabolic stability in rat liver microsomes assessed as liver blood flow at 1 uM by LC-MS/MS analysis; type: ADME, Microsome; details: read-out: QH
Cytochrome P450 1A2 = molecular target: T1, Cytochrome P450 1A2 (Homo sapiens, UniProt P05177); assay: Inhibition of CYP1A2 in human liver microsomes in presence of NADPH by LC-MS/MS analysis; type: ADME, Microsome
T1 sequence (P05177 whole entry): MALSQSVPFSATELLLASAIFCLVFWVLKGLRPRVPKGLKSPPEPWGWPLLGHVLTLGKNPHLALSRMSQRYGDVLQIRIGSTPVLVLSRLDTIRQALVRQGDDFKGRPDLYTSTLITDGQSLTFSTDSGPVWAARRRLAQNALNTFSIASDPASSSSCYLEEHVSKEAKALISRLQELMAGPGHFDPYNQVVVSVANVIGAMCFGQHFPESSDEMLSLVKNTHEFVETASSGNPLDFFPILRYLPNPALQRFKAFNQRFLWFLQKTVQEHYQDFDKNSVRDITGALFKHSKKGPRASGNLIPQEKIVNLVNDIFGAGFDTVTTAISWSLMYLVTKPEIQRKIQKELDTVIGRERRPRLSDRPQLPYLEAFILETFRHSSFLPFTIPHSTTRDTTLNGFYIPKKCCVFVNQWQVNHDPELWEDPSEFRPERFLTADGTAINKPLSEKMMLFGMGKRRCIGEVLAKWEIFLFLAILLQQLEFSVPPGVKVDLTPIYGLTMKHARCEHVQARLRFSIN

[2] = Solubility of compound at pH 5; type: physicochemical; details: buffer
[3] = Permeability across basal to apical side in human Calu-3 cells at 0.1 to 300 uM measured upto 2 hrs by HPLC-MS/MS analysis; type: ADME, cell-based; details: dose 0.1-300 µM, read-out: permeability
Cytochrome P450 2D6 = Cytochrome P450 2D6 (Homo sapiens, UniProt P10635); assay: Inhibition of CYP2D6 in human liver microsomes using dextromethorphan as substrate in presence of NADPH by LC-MS/MS analysis; type: ADME, Microsome
Lung [4] = assay: Inhibition of lung water resorption in Wistar rat at 3 ug/kg, IT(Intratracheal) incubated for 3 hrs relative to control; type: functional
Lung [5] = assay: Inhibition of lung water resorption in Wistar rat at 0.3 ug/kg, IT(Intratracheal) incubated for 3 hrs relative to control; type: functional
Cytochrome P450 3A4 = Cytochrome P450 3A4 (Homo sapiens, UniProt P08684); assay: Inhibition of CYP3A4 in human liver microsomes using midazolam as substrate in presence of NADPH by LC-MS/MS analysis; type: ADME, Microsome
Rattus norvegicus [6] = assay: Upregulation of serum aldosterone level in Han Wistar rat model of lung fluid absorption at 3 ug/kg, IT(Intratracheal) measured after 3 hrs relative to control; type: functional; details: dose 3 µg/kg
[7] = Clearance in Han Wistar rat assessed as liver blood flow at 0.5 umol/kg; type: ADME, tissue-based; details: in vivo, at 0.5 µmol/kg
[8] = molecular target: Acetylcholinesterase (Homo sapiens) (UniProt P22303); assay: Inhibition of AChE (unknown origin) at 10 uM relative to control
[9] = Metabolic stability in rat hepatocytes assessed as liver blood flow at 1 uM incubated for 6 hrs by HPLC-MS/MS analysis; type: ADME, cell-based, Hepatocyte; details: read-out: QH
[10] = Drug uptake in Han Wistar rat lung at 10 ug/kg, IT(Intratracheal) measured after 3 hrs by HPLC-TMS analysis; type: ADME, tissue-based; details: in vivo, inhaled_or_intranasal, 0.01 mg/kg, dose 10 µg/kg
Cytochrome P450 2C9 = Cytochrome P450 2C9 (Homo sapiens, UniProt P11712); assay: Inhibition of CYP2C9 in human liver microsomes using diclofenac as substrate in presence of NADPH by LC-MS/MS analysis; type: ADME, Microsome
[11] = Metabolic stability in human hepatocytes assessed as liver blood flow at 1 uM incubated for 6 hrs by HPLC-MS/MS analysis; type: ADME, cell-based, Hepatocyte; details: read-out: QH
[12] = Inhibition of ENaC in mouse M1 cells upto 10 uM by chamber assay; type: cell-based; details: m1 cell
[13] = Genotoxicity in Escherichia coli WP2 uvrA (pKM 101) incubated for 48 hrs in presence of rat liver S9 fraction by Ames test; type: toxicity, subcellular; details: s9, 48 h
[14] = Genotoxicity in Salmonella typhimurium TA100 incubated for 48 hrs in presence of rat liver S9 fraction by Ames test; type: toxicity, subcellular; details: salmonella enterica subsp. enterica serovar typhimurium, s9, 48 h
[15] = Cytotoxicity against rat hepatocytes by LDH assay; type: toxicity, cell-based, Hepatocyte
[16] = Genotoxicity in Salmonella typhimurium TA98 incubated for 48 hrs in presence of rat liver S9 fraction by Ames test; type: toxicity, subcellular; details: salmonella enterica subsp. enterica serovar typhimurium, s9, 48 h
[17] = Genotoxicity in Salmonella typhimurium TA1537 incubated for 48 hrs in presence of rat liver S9 fraction by Ames test; type: toxicity, subcellular; details: salmonella enterica subsp. enterica serovar typhimurium, s9, 48 h
Rattus norvegicus [18] = assay: Acute effect on Han Wistar rat model of lung fluid absorption administered intratracheally measured after 3 hrs; type: functional; details: route it(Intratracheal)
[19] = MRT in Han Wistar rat; type: ADME; details: in vivo
Rattus norvegicus [20] = assay: Effect on Han Wistar rat model of lung fluid absorption at ED70 administered intratracheally measured after 20 hrs; type: functional; details: route it(Intratracheal)
[21] = Permeability of compound by PAMPA assay; type: ADME; details: read-out: permeability
M1 cell = assay: Inhibition of ENaC-mediated water resorption in mouse M1 cells at 3 uM by radiometric dilution assay relative to control; type: cell-based
Cytochrome P450 2C19 = Cytochrome P450 2C19 (Homo sapiens, UniProt P33261); assay: Inhibition of CYP2C19 in human liver microsomes using (S)-mephenytoin as substrate in presence of NADPH by LC-MS/MS analysis; type: ADME, Microsome
Rattus norvegicus [22] = organism: Rattus norvegicus; assay: Upregulation of serum potassium level in Han Wistar rat; type: functional, organism-based
[23] = Permeability across apical to basal side in human Caco-2 cells by LC-MS/MS analysis; type: ADME, cell-based; details: read-out: permeability
[24] = Cytotoxicity against human U-937 cells by MTT assay; type: toxicity, cell-based
[25] = Metabolic stability in human liver microsomes assessed as liver blood flow at 1 uM by LC-MS/MS analysis; type: ADME, Microsome; details: read-out: QH
[26] = Cytotoxicity against human 16HBE14o- cells by plasma damage based analysis; type: toxicity, cell-based
[27] = Genotoxicity in Salmonella typhimurium TA1535 incubated for 48 hrs in presence of rat liver S9 fraction by Ames test; type: toxicity, subcellular; details: salmonella enterica subsp. enterica serovar typhimurium, s9, 48 h
[28] = Lipophilicity, logD of compound at pH 7.4; type: physicochemical; details: buffer
[29] = Drug uptake in Han Wistar rat lung at 8 ug/kg, IT(Intratracheal) measured after 3 hrs by HPLC-TMS analysis; type: ADME, tissue-based; details: in vivo, inhaled_or_intranasal, 0.008 mg/kg, dose 8 µg/kg
BK channel = BK channel (Homo sapiens, UniProt Q12791); assay: Inhibition of BK channel (unknown origin) at 10 uM relative to control; type: toxicity
[30] = Oral bioavailability in Han Wistar rat; type: ADME, organism-based; details: in vivo
CaV3.2 = CaV3.2 (Homo sapiens, UniProt O95180); assay: Inhibition of CaV3.2 (unknown origin) at 10 uM relative to control; type: toxicity
CFTR = CFTR (Homo sapiens, UniProt P13569); assay: Inhibition of CFTR (unknown origin) at 10 uM relative to control; type: toxicity
CaV3.1 = CaV3.1 (Homo sapiens, UniProt O43497); assay: Inhibition of CaV3.1 (unknown origin) at 10 uM relative to control; type: toxicity

Sequence of Cytochrome P450 2C19 (P33261 whole entry): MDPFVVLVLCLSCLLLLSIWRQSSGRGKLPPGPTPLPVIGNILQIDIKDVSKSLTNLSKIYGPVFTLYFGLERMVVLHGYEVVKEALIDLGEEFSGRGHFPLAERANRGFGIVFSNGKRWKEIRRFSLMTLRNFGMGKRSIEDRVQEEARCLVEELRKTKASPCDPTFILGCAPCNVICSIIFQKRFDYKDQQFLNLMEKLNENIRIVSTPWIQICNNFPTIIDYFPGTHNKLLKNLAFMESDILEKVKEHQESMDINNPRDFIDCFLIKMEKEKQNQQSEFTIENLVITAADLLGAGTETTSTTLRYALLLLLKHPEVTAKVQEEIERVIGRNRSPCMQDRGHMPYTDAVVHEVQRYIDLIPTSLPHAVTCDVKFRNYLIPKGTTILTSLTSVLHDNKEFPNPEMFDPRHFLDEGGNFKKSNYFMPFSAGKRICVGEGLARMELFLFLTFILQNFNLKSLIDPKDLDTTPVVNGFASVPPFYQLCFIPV
Sequence of Cytochrome P450 2D6 (P10635 whole entry): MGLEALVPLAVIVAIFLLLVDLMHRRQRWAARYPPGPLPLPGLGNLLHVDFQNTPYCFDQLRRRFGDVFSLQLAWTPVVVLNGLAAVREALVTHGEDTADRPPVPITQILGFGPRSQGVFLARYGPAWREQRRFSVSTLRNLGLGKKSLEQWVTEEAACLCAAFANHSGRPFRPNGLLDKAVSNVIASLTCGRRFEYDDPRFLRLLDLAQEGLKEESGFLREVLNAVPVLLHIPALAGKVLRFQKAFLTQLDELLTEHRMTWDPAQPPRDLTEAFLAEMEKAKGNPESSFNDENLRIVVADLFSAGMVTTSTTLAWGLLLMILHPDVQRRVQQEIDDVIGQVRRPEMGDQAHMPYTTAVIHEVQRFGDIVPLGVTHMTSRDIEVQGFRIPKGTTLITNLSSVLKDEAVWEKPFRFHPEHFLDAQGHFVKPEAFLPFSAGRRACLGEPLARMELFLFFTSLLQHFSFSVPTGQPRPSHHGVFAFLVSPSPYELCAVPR
Sequence of Cytochrome P450 3A4 (P08684 whole entry): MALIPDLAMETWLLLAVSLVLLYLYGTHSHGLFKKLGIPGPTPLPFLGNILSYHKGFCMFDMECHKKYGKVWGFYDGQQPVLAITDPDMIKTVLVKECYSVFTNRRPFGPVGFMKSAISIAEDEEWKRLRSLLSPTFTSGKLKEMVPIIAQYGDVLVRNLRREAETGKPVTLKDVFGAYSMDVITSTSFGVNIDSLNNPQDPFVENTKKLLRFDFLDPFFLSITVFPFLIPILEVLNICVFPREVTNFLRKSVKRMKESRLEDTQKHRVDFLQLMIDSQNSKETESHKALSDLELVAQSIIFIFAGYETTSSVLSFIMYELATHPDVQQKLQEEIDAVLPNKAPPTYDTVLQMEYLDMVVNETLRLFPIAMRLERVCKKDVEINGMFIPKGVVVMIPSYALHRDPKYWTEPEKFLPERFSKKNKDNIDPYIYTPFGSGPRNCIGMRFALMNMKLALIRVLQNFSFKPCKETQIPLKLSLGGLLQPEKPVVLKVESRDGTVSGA
Sequence of Cytochrome P450 2C9 (P11712 whole entry): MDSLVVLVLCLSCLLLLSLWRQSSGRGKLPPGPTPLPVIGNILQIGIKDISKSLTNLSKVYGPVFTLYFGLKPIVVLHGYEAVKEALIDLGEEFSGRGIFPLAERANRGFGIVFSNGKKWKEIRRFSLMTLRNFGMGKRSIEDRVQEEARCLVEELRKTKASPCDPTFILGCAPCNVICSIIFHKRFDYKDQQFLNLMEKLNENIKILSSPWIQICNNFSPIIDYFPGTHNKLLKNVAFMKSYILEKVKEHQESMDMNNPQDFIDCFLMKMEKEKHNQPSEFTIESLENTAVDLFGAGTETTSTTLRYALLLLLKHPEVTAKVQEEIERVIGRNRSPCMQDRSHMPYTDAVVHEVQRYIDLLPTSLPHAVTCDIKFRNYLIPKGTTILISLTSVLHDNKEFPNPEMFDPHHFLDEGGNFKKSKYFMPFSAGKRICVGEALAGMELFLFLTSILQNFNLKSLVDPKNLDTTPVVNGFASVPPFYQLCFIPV
Sequence of CaV3.2 (O95180 whole entry): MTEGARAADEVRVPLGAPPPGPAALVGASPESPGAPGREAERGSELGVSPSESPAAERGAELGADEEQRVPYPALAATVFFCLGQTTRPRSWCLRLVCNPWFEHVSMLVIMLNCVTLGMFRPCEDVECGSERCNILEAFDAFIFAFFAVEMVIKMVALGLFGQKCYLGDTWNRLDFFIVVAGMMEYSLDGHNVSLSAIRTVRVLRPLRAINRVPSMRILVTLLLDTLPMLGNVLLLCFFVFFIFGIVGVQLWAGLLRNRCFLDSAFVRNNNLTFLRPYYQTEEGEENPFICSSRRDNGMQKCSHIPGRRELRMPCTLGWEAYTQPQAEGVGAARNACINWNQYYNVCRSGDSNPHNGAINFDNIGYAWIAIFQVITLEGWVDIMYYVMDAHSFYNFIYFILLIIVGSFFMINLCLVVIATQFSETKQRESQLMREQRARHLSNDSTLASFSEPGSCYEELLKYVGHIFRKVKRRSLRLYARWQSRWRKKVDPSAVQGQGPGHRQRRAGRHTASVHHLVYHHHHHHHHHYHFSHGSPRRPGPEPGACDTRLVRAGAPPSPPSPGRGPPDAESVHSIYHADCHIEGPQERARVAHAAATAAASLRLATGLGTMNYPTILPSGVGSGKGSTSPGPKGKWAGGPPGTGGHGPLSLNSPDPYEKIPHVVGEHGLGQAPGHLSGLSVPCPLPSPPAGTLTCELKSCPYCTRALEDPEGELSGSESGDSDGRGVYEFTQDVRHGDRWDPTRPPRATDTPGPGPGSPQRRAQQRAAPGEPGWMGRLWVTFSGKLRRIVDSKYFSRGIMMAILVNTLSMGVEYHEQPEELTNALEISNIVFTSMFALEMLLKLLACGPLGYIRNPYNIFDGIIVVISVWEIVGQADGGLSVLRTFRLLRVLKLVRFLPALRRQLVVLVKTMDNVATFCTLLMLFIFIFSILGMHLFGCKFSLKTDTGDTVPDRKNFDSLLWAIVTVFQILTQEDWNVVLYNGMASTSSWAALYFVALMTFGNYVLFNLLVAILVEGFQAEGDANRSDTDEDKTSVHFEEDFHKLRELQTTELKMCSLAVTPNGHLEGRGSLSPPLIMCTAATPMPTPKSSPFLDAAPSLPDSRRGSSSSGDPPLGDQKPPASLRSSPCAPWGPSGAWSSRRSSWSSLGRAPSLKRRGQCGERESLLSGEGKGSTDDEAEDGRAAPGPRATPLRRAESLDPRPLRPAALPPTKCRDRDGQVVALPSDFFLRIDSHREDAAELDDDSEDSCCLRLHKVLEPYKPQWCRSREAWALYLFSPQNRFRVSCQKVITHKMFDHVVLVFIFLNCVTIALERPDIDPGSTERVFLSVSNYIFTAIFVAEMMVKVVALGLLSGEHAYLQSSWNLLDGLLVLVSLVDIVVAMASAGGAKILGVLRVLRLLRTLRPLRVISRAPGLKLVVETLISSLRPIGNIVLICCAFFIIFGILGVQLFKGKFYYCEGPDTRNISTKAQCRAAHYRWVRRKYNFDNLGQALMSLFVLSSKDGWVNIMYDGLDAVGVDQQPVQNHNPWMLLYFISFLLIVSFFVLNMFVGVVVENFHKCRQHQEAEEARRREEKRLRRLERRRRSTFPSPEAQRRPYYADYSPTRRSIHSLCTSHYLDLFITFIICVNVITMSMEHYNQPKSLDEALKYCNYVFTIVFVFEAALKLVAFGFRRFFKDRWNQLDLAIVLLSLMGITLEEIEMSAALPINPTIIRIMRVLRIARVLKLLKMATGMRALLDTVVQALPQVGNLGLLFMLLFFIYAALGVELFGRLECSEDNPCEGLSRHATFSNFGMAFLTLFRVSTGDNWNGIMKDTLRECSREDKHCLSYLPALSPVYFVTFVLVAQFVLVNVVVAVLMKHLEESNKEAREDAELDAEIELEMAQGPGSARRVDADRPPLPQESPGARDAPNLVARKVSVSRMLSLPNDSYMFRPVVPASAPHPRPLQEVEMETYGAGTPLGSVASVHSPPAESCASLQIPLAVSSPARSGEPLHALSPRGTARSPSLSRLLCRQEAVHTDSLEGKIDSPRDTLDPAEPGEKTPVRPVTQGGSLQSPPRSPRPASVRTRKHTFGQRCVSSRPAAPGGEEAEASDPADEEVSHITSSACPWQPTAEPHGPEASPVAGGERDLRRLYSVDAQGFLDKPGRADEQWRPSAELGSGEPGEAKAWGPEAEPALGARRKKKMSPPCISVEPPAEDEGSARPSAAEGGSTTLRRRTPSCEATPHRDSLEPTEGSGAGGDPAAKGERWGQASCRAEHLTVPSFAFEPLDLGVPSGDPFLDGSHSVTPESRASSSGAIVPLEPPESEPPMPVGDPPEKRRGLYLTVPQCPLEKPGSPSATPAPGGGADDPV
Sequence of Acetylcholinesterase (Homo sapiens) (P22303 whole entry): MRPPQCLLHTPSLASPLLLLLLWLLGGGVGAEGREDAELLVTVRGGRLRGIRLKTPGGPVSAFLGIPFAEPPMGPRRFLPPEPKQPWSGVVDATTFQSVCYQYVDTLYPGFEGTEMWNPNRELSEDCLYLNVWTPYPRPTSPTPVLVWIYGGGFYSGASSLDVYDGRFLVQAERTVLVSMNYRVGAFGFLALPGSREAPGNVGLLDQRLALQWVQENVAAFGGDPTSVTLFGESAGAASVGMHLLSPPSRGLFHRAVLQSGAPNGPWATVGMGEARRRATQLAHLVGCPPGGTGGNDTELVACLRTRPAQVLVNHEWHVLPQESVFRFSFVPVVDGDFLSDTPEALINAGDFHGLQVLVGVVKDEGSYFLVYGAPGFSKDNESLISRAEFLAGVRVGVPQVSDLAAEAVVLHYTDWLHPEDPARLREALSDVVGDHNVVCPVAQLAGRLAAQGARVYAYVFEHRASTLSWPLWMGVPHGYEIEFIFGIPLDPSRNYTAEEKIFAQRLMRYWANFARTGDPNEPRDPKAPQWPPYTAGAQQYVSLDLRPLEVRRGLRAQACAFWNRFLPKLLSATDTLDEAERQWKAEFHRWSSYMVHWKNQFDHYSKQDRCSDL

Compound	hepatic extraction ratio at 1 µM [1]	IC50 (Cytochrome P450 1A2)	solubility [2]	Papp B→A at 2 h, up to 300 µM [3]	IC50 (Cytochrome P450 2D6)	IC50 (Cytochrome P450 3A4)	QH [7]	hepatic extraction ratio at 6 h, 1 µM [9]	IC50 (Cytochrome P450 2C9)	hepatic extraction ratio at 6 h, 1 µM [11]	Activity [13]	Activity [14]	IC50 [15]	Activity [16]	Activity [17]	MRT [19]	Papp [21]	IC50 (Cytochrome P450 2C19)	Papp A→B [23]	IC50 [24]	other results
CCn1c(CNC(=O)c2nc(Cl)cnc2N)[n+](CC)c2ccc(C(=O)N(C)CCN(C)C)cc21	< 0.23	> 50 µM	> 2%	< 0.21 ×10⁻⁶ cm/s	> 50 µM	> 50 µM	84%	0.2	> 50 µM	0.2	Non-Toxic	Non-Toxic	> 800 µM	Non-Toxic	Non-Toxic	18 min	< 0.02 ×10⁻⁶ cm/s	> 50 µM	< 0.2 ×10⁻⁶ cm/s	> 800 µM	inhibition in vivo at 0.003 mg/kg (Lung [4]): 33%; inhibition in vivo at 0.0003 mg/kg (Lung [5]): 27%; Activity (Rattus norvegicus [6]): <25%; inhibition [8]: 44%; Drug uptake [10]: 55%; IC50 [12]: 0.0062 µM; ED50 (Rattus norvegicus [18]): 0.1 µg/kg; ED70 (Rattus norvegicus [18]): 0.13 µg/kg; Efficacy (Rattus norvegicus [20]): 39%; inhibition (M1 cell): 81%; Activity (Rattus norvegicus [22]): inactive; hepatic extraction ratio at 1 µM [25]: < 0.23; IC50 [26]: > 800 µM; Activity [27]: Non-Toxic; logD [28]: 0.2
CCn1c(CNC(=O)c2nc(Cl)cnc2N)[n+](CC)c2ccc(OCC(=O)NCCOCP(C)(C)=O)cc21	< 0.23	> 50 µM	> 5%	0.37 ×10⁻⁶ cm/s	> 50 µM	> 50 µM	79%	0.28	> 50 µM	0.17	Non-Toxic	Non-Toxic	> 800 µM	Non-Toxic	Non-Toxic	18 min	< 0.05 ×10⁻⁶ cm/s	> 50 µM	0.6 ×10⁻⁶ cm/s	> 800 µM	Drug uptake [29]: 26%; inhibition at 10 µM (BK channel): < 50%; bioavailability [30]: < 5%; inhibition at 10 µM (CaV3.2): < 50%; inhibition at 10 µM (CFTR): < 50%; hepatic extraction ratio at 1 µM [25]: < 0.23; IC50 [26]: > 800 µM; inhibition at 10 µM (CaV3.1): < 50%; Activity [27]: Non-Toxic; logD [28]: 0.1
